Experiments:
MDA-MB-231 [1] = assay: Induction of apoptosis in human MDA-MB-231 2LMP cells assessed as cell death at 3 uM after 4 days by trypan blue exclusion assay; conditions: MDA-MB-231, 96 h
MDA-MB-231 [2] = assay: Induction of apoptosis in human MDA-MB-231 2LMP cells assessed as cell death at 0.3 uM after 4 days by trypan blue exclusion assay; conditions: MDA-MB-231, 96 h

## O=C(c1ccc(Oc2ccccc2)cc1)c1cc(C(=O)c2nc3ccccc3s2)c(O)c(O)c1O
MDA-MB-231 [1]
  cell death at 3 µM: 86%
MDA-MB-231 [2]
  cell death at 0.3 µM: 31%

Reference: ChEMBL document CHEMBL1141593, “Acylpyrogallols as inhibitors of antiapoptotic Bcl-2 proteins” (J Med Chem, 2008)
